Data: article PMC9788324, “In Vitro and In Silico Pharmacological and Cosmeceutical Potential of Ten Essential Oils from Aromatic Medicinal Plants from the Mascarene Islands” (Molecules, 2022)

Key:
[1] = target: T1, collagenase from Clostridium histolyticum (Type IV); experiment: fluorescence assay, DQ gelatin-fluorescein ([…] nm); format: biochemical, Hathewaya histolytica; details: DQ gelatin substrate, 0.2 U/mL enzyme, 15 min preincubation at 37 °C; positive control, printed as '1,1 Phenanthroline' in table
T1 construct: gene colG; native commercial collagenase from EnzChek Gelatinase/Collagenase Assay Kit; ColG/ColH not distinguished; docking used PDB 2Y6I, not the assay protein

[2] = target: T2, porcine pancreatic elastase (Sus scrofa, UniProt P00772); experiment: chromogenic assay, absorbance at […] nm; format: biochemical; details: read-out: Elastase Inhibition / IC50 (μg/mL) (converted)
T2 construct: gene CELA1; commercial native pancreatic enzyme (Sigma-Aldrich); mature form; docking used PDB 1BRU (recalled as porcine elastase 2), not the assay protein
T2 sequence (P00772 27-266): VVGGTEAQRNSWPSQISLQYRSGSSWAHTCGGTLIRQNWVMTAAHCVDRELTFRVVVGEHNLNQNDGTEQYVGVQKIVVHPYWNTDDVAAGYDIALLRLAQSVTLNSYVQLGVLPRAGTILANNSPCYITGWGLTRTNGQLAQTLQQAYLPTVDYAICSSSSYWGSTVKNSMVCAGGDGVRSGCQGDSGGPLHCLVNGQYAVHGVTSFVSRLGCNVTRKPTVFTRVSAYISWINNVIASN

IC50 [2]	Structure (SMILES)	Collagenase Inhibition / IC50 (mg/mL) [1]
	c1cnc2c(c1)ccc1cccnc12 [1,10-phenanthroline]	4.20 × 10^−3 ± 0.00 mg/mL
22.1 µM	C[C@H]1[C@H](C)CC[C@]2(C(=O)O)CC[C@]3(C)C(=CC[C@@H]4[C@@]5(C)CC[C@H](O)C(C)(C)[C@@H]5CC[C@]43C)[C@H]12 [Ursolic acid]	
